A short description of the test: The compound was tested for the inhibition of alanine racemase from Pseudomonas aeruginosa.

The term Ki denotes a measure of affinity in units of concentration, obtained from inhibition or displacement. A lower Ki goes with a stronger hold on the target.

The molecule `CCC(=N)P(=O)(O)O` displayed a Ki of 8.5 mM.
